Several values for one entry are separate records, joined by “and”; a condition that tells them apart may be missing. Equal values may be shown once. Read-outs that look alike come from different tables or passages of the source.
Experiments:
[1] = test system: Salmonella typhimurium TA104 pr1
[2] = test system: Salmonella typhimurium TA104 recN2-4
[3] = test system: TA104 recN2-4 and TA104 pr1 strain
SOS signal = details: normally; cited from earlier work
[4] = test system: Salmonella typhimurium TA104 recN2-4; details: van der Lelie et al, 1997; cited from earlier work
[5] = without S9-mix, maximal S/N, 60-240 min
[6] = without S9-mix, ratio of maximal S/N values
[7] = without S9-mix, ratio of mean S/N values
[8] = without S9-mix, within the dose-range tested

With Coumermycine A1 the “Toxic (pri)” value [1] was “+”.

For `CCOS(C)(=O)=O` [EMS], the “concentration at which S/R > 2 (recN2 − 4)” value (“concentration … (recN2 − 4)” below) [2, 5] was 256 ppm, the “concentration at which S/R's of rec/pri >1.5 MAX” value [3, 6] was 256 ppm and the “concentration at which S/R's of rec/pri >1.5 MEAN” value [3, 7] was 256 ppm.

In the case of `Nc1ccc([N+](=O)[O-])cc1N` [4Nitro-o-Phenylenediamine], the “concentration … (recN2 − 4)” value ([2]; S9-mix +25 μl/ml) is reported as 12.5 ppm, the “concentration … (recN2 − 4)” value [2, 5] is reported as 3.1 ppm and the “concentration at which S/R's of rec/pri >1.5 MAX” value ([3]; S9-mix +25 μl/ml) is reported as 12.5 ppm. The “concentration at which S/R's of rec/pri >1.5 MEAN” value ([3]; S9-mix +25 μl/ml) was 12.5 ppm, the “concentration at which S/R's of rec/pri >1.5 MAX” value [3, 6] was 3.1 ppm and the “concentration at which S/R's of rec/pri >1.5 MEAN” value [3, 7] was 1.57 ppm.

For `O=[N+]([O-])c1ccc2c(c1)Cc1cc([N+](=O)[O-])ccc1-2` [2,7Dinitrofluoreen], the “concentration … (recN2 − 4)” value [2] was 0.62 ppm, the “concentration at which S/R's of rec/pri >1.5 MAX” value [3] was 0.62 ppm and the “concentration at which S/R's of rec/pri >1.5 MEAN” value [3] was 0.62 ppm. The “Toxic (pri)” value [1] was “−”.

In the case of `c1ccc2c(c1)ccc1ccccc12` [Phenanthrene], the “concentration … (recN2 − 4)” value ([2]; S9-mix +100 μl/ml) is reported as 6.2 ppm, the “concentration at which S/R's of rec/pri >1.5 MAX” value ([3]; S9-mix +100 μl/ml) is reported as 6.2 ppm and the “concentration at which S/R's of rec/pri >1.5 MEAN” value ([3]; S9-mix +100 μl/ml) is reported as 6.2 ppm. For the same molecule, the “Toxic (pri)” value ([1]; S9-mix +100 μl/ml, within the dose-range tested) was “+”.

For `c1ccc2c(c1)-c1cccc3cccc-2c13` [Fluoranthene], the “concentration … (recN2 − 4)” value ([2]; Salmonella typhimurium) was 3.1 ppm, the “concentration at which S/R's of rec/pri >1.5 MAX” value ([3]; Salmonella typhimurium) was 3.1 ppm and the “concentration at which S/R's of rec/pri >1.5 MEAN” value ([3]; Salmonella typhimurium) was 3.1 ppm. The “Toxic (pri)” value [1] was “−”.

In the case of `CO[C@@]12[C@H](COC(N)=O)C3=C(C(=O)C(C)=C(N)C3=O)N1C[C@@H]1N[C@@H]12` [MMC], the “concentration at which S/R's of rec/pri >1.5 MEAN” value [3, 7] is reported as 15.6 ppb.

For `CCn1cc(C(=O)O)c(=O)c2ccc(C)nc21` [Nalidixic acid], the “concentration … (recN2 − 4)” value [2, 5] was 0.16 ppm, the “concentration at which S/R's of rec/pri >1.5 MAX” value [3, 6] was 0.16 ppm and the “concentration at which S/R's of rec/pri >1.5 MEAN” value [3, 7] was 0.16 ppm. The “Toxic (pri)” value [1, 8] was “+”.

For `[N-]=[N+]=[N-]` [Sodium azide (NaN3), Sodium azide], the “S/N values in the recN2-4 strain” value ([2]; Salmonella typhimurium) is given as “greater than 2”, the “score in the SOS chromotest” value (SOS signal) is given as “negative” and the genotoxicity evaluation [3] is given as “non-genotoxic”. For the same molecule, the “response in the VITOTOX test with the recN2-4 strain alone, previously reported” value [4] was “positive”, the “Toxic (pri)” value [1] was “+” and the “S/N values in the pr1 strain” value ([1]; Salmonella typhimurium) was “greater than 2”. The “S/N, indications of toxicity obtained with time” value ([1]; Salmonella typhimurium) was < 0.8.

With `Nc1ccc2c(c1)Cc1ccccc1-2` [2AF] the “concentration at which S/R's of rec/pri >1.5 MAX” value [3] was 0.2 ppm and the “concentration at which S/R's of rec/pri >1.5 MEAN” value [3] was 0.2 ppm.

For `COS(C)(=O)=O` [MMS], the “concentration … (recN2 − 4)” value [2, 5] was 16 ppm and 8 ppm, the “concentration at which S/R's of rec/pri >1.5 MAX” value [3, 6] was 8 ppm and the “concentration at which S/R's of rec/pri >1.5 MEAN” value [3, 7] was 8 ppm.

With `O=[N+]([O-])c1ccc2c3c(cccc13)-c1ccccc1-2` [3-Nitrofluoranthene] the “concentration … (recN2 − 4)” value ([2]; S9-mix +25 μl/ml) was 15.7 ppb, the “concentration … (recN2 − 4)” value [2, 5] was 15.7 ppb and the “concentration … (recN2 − 4)” value ([2]; without S9-mix, maximal S/N, 60-240 min, listed as 3Nitrofluoranthene) was 0.032 ppm. The “concentration at which S/R's of rec/pri >1.5 MAX” value ([3]; S9-mix +25 μl/ml) was 31.2 ppb, the “concentration at which S/R's of rec/pri >1.5 MEAN” value ([3]; S9-mix +25 μl/ml) was 15.7 ppb and the “concentration at which S/R's of rec/pri >1.5 MAX” value [3, 6] was 31.3 ppb. For the same molecule, the “concentration at which S/R's of rec/pri >1.5 MAX” value ([3]; without S9-mix, ratio of maximal S/N values, listed as 3Nitrofluoranthene) was 0.064 ppm, the “concentration at which S/R's of rec/pri >1.5 MEAN” value [3, 7] was 15.7 ppb and the “concentration at which S/R's of rec/pri >1.5 MEAN” value ([3]; without S9-mix, ratio of mean S/N values, listed as 3Nitrofluoranthene) was 0.032 ppm.

With `O=C1OCCN1/N=C/c1ccc([N+](=O)[O-])o1` [Furazolidone] the “concentration at which S/R's of rec/pri >1.5 MAX” value ([3]; Salmonella typhimurium) was 0.5 ppb.

With `COc1ccc2nc3cc(Cl)ccc3c(NCCCNCCCl)c2c1` [ICR 191 Acridine] the “concentration … (recN2 − 4)” value [2] was 0.62 ppm, the “concentration at which S/R's of rec/pri >1.5 MAX” value [3] was 1.25 ppm and the “concentration at which S/R's of rec/pri >1.5 MEAN” value [3] was 0.31 ppm. The “Toxic (pri)” value [1] was “−”.

For `Nc1cccc2ccccc12` [a-Naphtylamine], the “concentration at which S/R's of rec/pri >1.5 MAX” value [3] was 2.5 ppm and the “concentration at which S/R's of rec/pri >1.5 MEAN” value [3] was 2.5 ppm.

In the case of `O=C(N/N=C/c1ccc([N+](=O)[O-])o1)c1ccc(O)cc1` [Nifuroxazide], the “effect at higher doses” value [3] is reported as “toxicity combined with genotoxicity”, the toxicity evaluation ([1]; light production, without S9mix) is reported as “dose-dependent decrease in light production indicating toxicity” and the “doses not toxic (S/N curves for the pr1 strain)” value ([1]; pr1 strain, FIG. 4) is reported as “up to 0.16 ppm”. The “Toxic (pri)” value [1, 8] was “+”.

For `c1ccc2c(c1)ccc1c3ccccc3ccc21` [Chrysene], the “concentration at which S/R's of rec/pri >1.5 MAX” value ([3]; S9-mix +100 μl/ml) was 10 ppm and the “concentration at which S/R's of rec/pri >1.5 MEAN” value ([3]; S9-mix +100 μl/ml) was 5 ppm.

In the case of `ClCC1CO1` (centres unmarked) [Epichlorohydrine], the “S/N values in the recN2-4 strain” value [2] is reported as > 2, the genotoxicity evaluation [3] is reported as “genotoxic” and the “S/N values in the pr1 strain” value [1] is reported as ~1. For the same molecule, the toxicity evaluation [1] was “not toxic in the given dose-range”.

For `COC(=O)N/N=C/c1c[n+]([O-])c2ccccc2[n+]1[O-]` [Carbadox], the “concentration … (recN2 − 4)” value [2, 5] was 0.08 ppm, the “concentration at which S/R's of rec/pri >1.5 MAX” value [3, 6] was 0.08 ppm and the “concentration at which S/R's of rec/pri >1.5 MEAN” value [3, 7] was 0.04 ppm.

In the case of `CCN(CC)N=O` [N-Nitrosodiethylamine], the “concentration … (recN2 − 4)” value ([2]; S9-mix +25 μl/ml) is reported as 120 ppm, the “concentration at which S/R's of rec/pri >1.5 MAX” value ([3]; S9-mix +25 μl/ml) is reported as 120 ppm and the “concentration at which S/R's of rec/pri >1.5 MEAN” value ([3]; S9-mix +25 μl/ml) is reported as 240 ppm.

Source: patent US6472152B1 (priority 1998, dated 2002)
